Assay results taken from ChEMBL document CHEMBL1139902, “Synthesis and SAR of succinamide peptidomimetic inhibitors of cathepsin S” (Bioorg Med Chem Lett, 2007).

Assays:
Procathepsin L = Procathepsin L (Homo sapiens, UniProt P07711); experiment: Inhibition of cathepsin L
Cathepsin K = target: T1, Cathepsin K (Homo sapiens, UniProt P43235); experiment: Inhibition of cathepsin K
T1 sequence (P43235 whole entry): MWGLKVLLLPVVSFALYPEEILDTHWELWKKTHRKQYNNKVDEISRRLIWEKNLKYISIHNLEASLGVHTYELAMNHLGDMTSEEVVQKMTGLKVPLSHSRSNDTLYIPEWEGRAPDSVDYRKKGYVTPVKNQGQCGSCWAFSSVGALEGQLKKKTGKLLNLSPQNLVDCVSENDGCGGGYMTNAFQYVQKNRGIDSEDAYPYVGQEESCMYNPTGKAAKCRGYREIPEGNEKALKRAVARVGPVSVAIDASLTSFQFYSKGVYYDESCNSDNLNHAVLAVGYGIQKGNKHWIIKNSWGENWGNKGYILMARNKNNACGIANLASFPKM

[1] = AUC in Wistar rat at 10 mg/kg, po; type: ADME, organism-based; design: dose 10 mg/kg, route oral; settings: plasma
[2] = Tmax in Wistar rat at 10 mg/kg. po; type: ADME, organism-based; design: dose 10 mg/kg, route oral; settings: in vivo
[3] = Half life in Wistar rat at 10 mg/kg. po; type: ADME, organism-based; design: dose 10 mg/kg, route oral; settings: in vivo
Cathepsin S = Cathepsin S (Homo sapiens, UniProt P25774)
Chain of Cathepsin S (P25774 whole entry): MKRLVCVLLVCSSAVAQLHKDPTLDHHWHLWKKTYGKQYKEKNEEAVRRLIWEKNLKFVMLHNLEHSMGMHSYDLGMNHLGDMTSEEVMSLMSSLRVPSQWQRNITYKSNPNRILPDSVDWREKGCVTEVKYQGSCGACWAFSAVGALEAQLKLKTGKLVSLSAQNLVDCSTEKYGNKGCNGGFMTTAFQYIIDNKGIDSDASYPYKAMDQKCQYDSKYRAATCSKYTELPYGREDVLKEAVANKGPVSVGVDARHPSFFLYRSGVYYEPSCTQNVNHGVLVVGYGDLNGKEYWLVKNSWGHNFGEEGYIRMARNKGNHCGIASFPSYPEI
Description: Inhibition of cathepsin S

[4] = Cmax in Wistar rat at 10 mg/kg. po; type: ADME, organism-based; design: dose 10 mg/kg, route oral; settings: in vivo

Chain of Procathepsin L (P07711 whole entry): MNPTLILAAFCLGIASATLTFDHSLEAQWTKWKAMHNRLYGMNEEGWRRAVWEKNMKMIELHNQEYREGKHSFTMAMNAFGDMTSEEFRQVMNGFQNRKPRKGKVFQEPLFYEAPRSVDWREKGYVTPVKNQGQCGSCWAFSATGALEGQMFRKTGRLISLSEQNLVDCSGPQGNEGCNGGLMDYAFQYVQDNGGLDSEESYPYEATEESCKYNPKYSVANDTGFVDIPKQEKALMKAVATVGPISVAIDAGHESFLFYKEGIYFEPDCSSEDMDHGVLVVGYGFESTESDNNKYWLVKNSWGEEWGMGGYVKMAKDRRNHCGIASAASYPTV

| Compound | Ki (Procathepsin L) | Ki (Cathepsin K) | AUC [1] | Tmax [2] | half-life [3] | Ki (Cathepsin S) | Cmax [4] |
| --- | --- | --- | --- | --- | --- | --- | --- |
| C[C@@H](CNc1ccc(OC(F)(F)F)cc1)NC(=O)[C@@H](CC(=O)N1CCOCC1)CC(C)(C)C | > 100 µM | 2.33 µM | – | – | – | – | – |
| O=C(N[C@H](CNc1ccc(OC(F)(F)F)cc1)c1ccccc1)[C@@H](CC(=O)N1CCOCC1)CC1CCCCC1 | 3.52 µM | > 30 µM | 2.77 µM·h | 2 h | 1.22 h | 0.062 µM | 815 nM |
| CC(C)[C@@H](CNc1ccc(OC(F)(F)F)cc1)NC(=O)[C@@H](CC(=O)N1CCOCC1)c1ccc(Cl)cc1 | > 100 µM | > 100 µM | 2.82 µM·h | 2 h | 1.82 h | – | 720 nM |
| O=C(N[C@H](CNc1ccc(OC(F)(F)F)cc1)C1CC1)[C@@H](CC(=O)N1CCOCC1)c1ccc(C(F)(F)F)cc1 | > 100 µM | > 100 µM | – | – | – | 0.616 µM | – |
| O=C(N[C@@H](CCc1ccccc1)CNc1ccc(OC(F)(F)F)cc1)[C@@H](CC(=O)N1CCOCC1)c1ccccc1 | – | 0.71 µM | – | – | – | 0.037 µM | – |
| O=C(C[C@H](CC1CCCCC1)C(=O)N1CCOCC1)NCCNc1ccc(F)cc1 | > 100 µM | > 100 µM | – | – | – | > 100 µM | – |
| CC(C)[C@@H](CNc1ccc(OC(F)(F)F)cc1)NC(=O)[C@@H](CC(=O)N1CCOCC1)CC1CCCCC1 | – | 0.995 µM | 0.831 µM·h | 1.7 h | 1.06 h | 0.011 µM | 241 nM |
| CC(C)[C@@H](CNc1ccc(OC(F)(F)F)cc1)NC(=O)[C@@H](CC(=O)N1CCOCC1)c1cccc(C(F)(F)F)c1 | > 30 µM | > 100 µM | – | – | – | 18.5 µM | – |
| CCC[C@@H](CNc1ccc(OC(F)(F)F)cc1)NC(=O)[C@@H](CC(=O)N1CCOCC1)CC1CCCC1 | 2.68 µM | 0.217 µM | – | – | – | 0.012 µM | – |
| C[C@@H](CNc1ccc(OC(F)(F)F)cc1)NC(=O)[C@@H](CC(=O)N1CCOCC1)c1ccc(C(F)(F)F)cc1 | > 100 µM | > 100 µM | – | – | – | – | – |
| O=C(N[C@@H](CCc1ccccc1)CNc1ccc(OC(F)(F)F)cc1)[C@H](CCC1CCCC1)CC(=O)N1CCOCC1 | 2.31 µM | > 30 µM | – | – | – | 0.2 µM | – |
| COc1ccc([C@H](CC(=O)N2CCOCC2)C(=O)N[C@H](CNc2ccc(OC(F)(F)F)cc2)C(C)C)cc1 | > 65 µM | > 30 µM | 2.04 µM·h | 1 h | 1.06 h | – | 789 nM |
| C[C@@H](CNc1ccc(OC(F)(F)F)cc1)NC(=O)[C@H](CCC1CCCCC1)CC(=O)N1CCOCC1 | > 30 µM | 3.71 µM | – | – | – | 0.095 µM | – |
| CC(C)[C@@H](CNc1ccc(OC(F)(F)F)cc1)NC(=O)[C@@H](CC(=O)N1CCOCC1)CC1CCCC1 | – | 1.14 µM | – | – | – | 0.038 µM | – |
| CC(C)[C@@H](CNc1ccc(OC(F)(F)F)cc1)NC(=O)[C@@H](CC(=O)N1CCOCC1)c1ccc(C(F)(F)F)cc1 | > 100 µM | > 100 µM | 4.63 µM·h | 2 h | 2.26 h | 0.043 µM | 946 nM |
| O=C(NCCNc1ccc(OC(F)(F)F)cc1)[C@@H](CC(=O)N1CCOCC1)CC1CCCCC1 | > 30 µM | > 100 µM | – | – | – | 0.194 µM | – |
| CC[C@@H](CNc1ccc(OC(F)(F)F)cc1)NC(=O)[C@@H](CC(=O)N1CCOCC1)CC1CCCCC1 | 0.267 µM | 0.907 µM | – | – | – | – | – |
| C[C@@H](CN1CCc2cc(F)ccc21)NC(=O)[C@@H](CC(=O)N1CCOCC1)Cc1ccccc1 | 8.86 µM | > 30 µM | – | – | – | > 24 µM | – |
| O=C(NCCNc1ccc(OC(F)(F)F)cc1)[C@@H](CC(=O)N1CCOCC1)c1ccc(C(F)(F)F)cc1 | – | > 100 µM | – | – | – | – | – |
| CC(C)[C@@H](CNc1ccc(OC(F)(F)F)cc1)NC(=O)[C@@H](CC(=O)N1CCOCC1)c1ccccc1 | 11.5 µM | 11.5 µM | 1.91 µM·h | 0.7 h | 0.92 h | 0.025 µM | 647 nM |

| Compound | Ki (Procathepsin L) | Ki (Cathepsin K) | AUC [1] | Tmax [2] | half-life [3] | Ki (Cathepsin S) | Cmax [4] |
| --- | --- | --- | --- | --- | --- | --- | --- |
| CC(C)[C@@H](CNc1ccc(OC(F)(F)F)cc1)NC(=O)[C@H](CCCc1ccccc1)CC(=O)N1CCOCC1 | – | 2.12 µM | – | – | – | 0.014 µM | – |
| CCC[C@@H](CNc1ccc(OC(F)(F)F)cc1)NC(=O)[C@@H](CC(=O)N1CCOCC1)CC1CCCCC1 | 0.285 µM | 0.557 µM | 0.752 µM·h | 1.83 h | 1.23 h | 0.013 µM | 220 nM |
| CC[C@@H](CNc1ccc(OC(F)(F)F)cc1)NC(=O)[C@H](CCc1ccccc1)CC(=O)N1CCOCC1 | 0.588 µM | 0.291 µM | – | – | – | 0.06 µM | – |
| CS(=O)(=O)CC[C@H](CNc1ccc(OC(F)(F)F)cc1)NC(=O)[C@@H](CC(=O)N1CCOCC1)CC1CCCCC1 | – | 5.41 µM | – | – | – | 0.069 µM | – |
| O=C(NCCNc1ccc(F)cc1)[C@H](CC(=O)N1CCOCC1)CC1CCCCC1 | > 100 µM | > 100 µM | – | – | – | > 100 µM | – |
| C[C@@H](CNc1ccc(OC(F)(F)F)cc1)NC(=O)[C@@H](CC(=O)N1CCOCC1)CC1CCCC1 | > 30 µM | 3.71 µM | 0.806 µM·h | 1 h | 0.68 h | – | 318 nM |
| CC(C)[C@@H](CNc1ccc(OC(F)(F)F)cc1)NC(=O)[C@@H](CC(=O)N1CCOCC1)c1ccccc1C(F)(F)F | > 100 µM | > 100 µM | – | – | – | > 100 µM | – |
| CC(C)[C@@H](CNc1ccc(OC(F)(F)F)cc1)NC(=O)[C@@H](CC(=O)N1CCOCC1)c1ccc(F)cc1 | 11.5 µM | 11.5 µM | 1.87 µM·h | 1.67 h | 0.97 h | 0.024 µM | 629 nM |
| O=C(N[C@H](CNc1ccc(OC(F)(F)F)cc1)c1ccccc1)[C@@H](CC(=O)N1CCOCC1)c1ccccc1 | – | 10.5 µM | – | – | – | 0.261 µM | – |
| CS(=O)(=O)CC[C@@H](CNc1ccc(OC(F)(F)F)cc1)NC(=O)[C@@H](CC(=O)N1CCOCC1)CC1CCCCC1 | – | 0.26 µM | – | – | – | 0.005 µM | – |
| O=C(NCCNc1ccc(F)cc1)[C@@H](CC(=O)N1CCOCC1)CC1CCCCC1 | > 30 µM | > 30 µM | – | – | – | 1.37 µM | – |
| O=C(NCCN1CCc2cc(F)ccc21)[C@H](CC1CCCCC1)NC(=O)N1CCOCC1 | – | – | 0.312 µM·h | 0.33 h | 1.12 h | – | 140 nM |
| C[C@@H](CN1CCc2cc(F)ccc21)NC(=O)[C@@H](CC(=O)N1CCOCC1)CC1CCCCC1 | – | – | 0.048 µM·h | 0.42 h | 1.12 h | – | 24 nM |
| O=C(C[C@@H](CC1CCCCC1)C(=O)N1CCOCC1)NCCNc1ccc(F)cc1 | > 100 µM | > 100 µM | – | – | – | 1.72 µM | – |
| O=C(N[C@@H](CCc1ccccc1)CNc1ccc(OC(F)(F)F)cc1)[C@@H](CC(=O)N1CCOCC1)CC1CCCCC1 | 0.636 µM | 1.48 µM | – | – | – | 0.018 µM | – |
| C[C@@H](CNc1ccc(OC(F)(F)F)cc1)NC(=O)[C@@H](CC(=O)N1CCOCC1)CC1CCCCC1 | 18.9 µM | 24.3 µM | 2.78 µM·h | 1.5 h | 0.87 h | 0.028 µM | 983 nM |
| CC(C)[C@@H](CNc1ccc(OC(F)(F)F)cc1)NC(=O)[C@H](CCC1CCCC1)CC(=O)N1CCOCC1 | – | > 26.4 µM | – | – | – | 0.011 µM | – |
| CC(C)[C@@H](CNc1ccc(OC(F)(F)F)cc1)NC(=O)[C@H](CCc1ccccc1)CC(=O)N1CCOCC1 | 0.372 µM | 0.184 µM | – | – | – | 0.027 µM | – |
| C[C@@H](CNc1ccc(OC(F)(F)F)cc1)NC(=O)[C@H](CCC(C)(C)C)CC(=O)N1CCOCC1 | > 100 µM | > 100 µM | – | – | – | – | – |
| Cc1ccc([C@H](CC(=O)N2CCOCC2)C(=O)N[C@H](CNc2ccc(OC(F)(F)F)cc2)C(C)C)cc1 | > 100 µM | > 30 µM | – | – | – | 0.134 µM | – |
